Read-outs that look alike come from different tables or passages of the source.
Legend:
[1] = molecular target: T1, KRas G12D (Homo sapiens (Human), UniProt P01116, G12D); experiment: KRas G12D Binding Assay (TR-FRET displacement of Cy5 labelled tracer); conditions: GDP-loaded KRAS G12D (amino acids 1:169), 60 minute incubation at 22° C.
Experimental: After a 60 minute incubation at 22° C., the reaction was measured using a PerkinElmer EnVision multimode plate reader via TR-FRET dual wavelength detection, and the percent of control (POC) calculated using a ratiometric emission factor. […] The POC values were fit to a 4-parameter logistic curve and the IC50 value was determined as the concentration where the curve crosses 50 POC.
ND stands for “not determined.”
Target sequence in this assay (P01116 other isoform, or with tags, fused parts or gaps G12D): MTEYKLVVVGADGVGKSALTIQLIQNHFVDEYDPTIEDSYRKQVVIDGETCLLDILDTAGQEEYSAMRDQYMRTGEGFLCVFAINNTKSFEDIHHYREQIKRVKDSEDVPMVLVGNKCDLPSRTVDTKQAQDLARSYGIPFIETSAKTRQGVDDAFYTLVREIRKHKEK

[2] = tested on: KRas G12D-mediated phosphorylation of ERK in AGS cells (ATCC CRL-1739) expressing G12D; experiment: Inhibition of KRas G12D-mediated Phosphorylation of ERK in AGS cells; assay type: cell-based; conditions: Homo sapiens
Experimental: Cells were plated in tissue culture treated 96 well plates at a density of 40,000 cells/well and allowed to attach for 12-14 hours. Diluted compounds were then added in a final concentration of 0.5% DMSO. After 3 hours, the medium was removed, 150 μL of 4.0% formaldehyde was added and the plates incubated at room temperature for 20 minutes. The plates were washed with PBS, and permeabilized with 150 μL of ice cold 100% methanol for 10 minutes. Non-specific antibody binding to the plates was blocked using […] Licor blocking buffer (Li-Cor Biotechnology, Lincoln Nebr.) for 1 hour at room temperature.
The amount of phospho-ERK was determined using an antibody specific for the phosphorylated form of ERK and compared to the amount of GAPDH. Primary antibodies used for the detection were added as follows: Phospho-ERK(Cell Signaling cs-9101) diluted 1:500 and GAPDH(Millipore MAB374) diluted 1:5000 in Licor block+0.05% Tween 20. The plates were incubated for 2 hours at room temperature. The plates were washed with PBS+0.05% Tween 20.
Secondary antibodies used to visualize primary antibodies were added as follows: Anti-rabbit-680 diluted 1:1000 and Anti-mouse-800 diluted 1:1000 both in Licor block+0.05% TweeN20, and were incubated for 1 hour at room temperature. The plates were washed with PBS +0.05% Tween 20. A 100 μL aliquot of PBS was added to each well and the plates were read on a Li-Cor Odyssey CLX plate reader.

[3] = molecular target: T1, KRas G12D; experiment: KRas G12D Surface Plasmon Resonance (SPR) Binding Assay; conditions: Biacore T200, immobilized biotinylated KRAS protein, 1:1 binding model
Target sequence in this assay (P01116-2 other isoform, or with tags, fused parts or gaps G12D): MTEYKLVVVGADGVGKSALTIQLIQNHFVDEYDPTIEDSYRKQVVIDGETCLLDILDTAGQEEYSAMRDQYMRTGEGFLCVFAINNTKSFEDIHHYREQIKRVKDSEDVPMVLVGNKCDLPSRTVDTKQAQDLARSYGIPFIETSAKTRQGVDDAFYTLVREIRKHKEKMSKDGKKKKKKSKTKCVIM

[4] = phospho-ERK(Thr202/Tyr204) normalized to GAPDH, AGS cells, 3 hours, read-out: IC50

SMILES	IC50 [1]	IC50 [2, 4]	IC50 ([2]; AGS, 3 h)	Kd [3]
CCc1cccc2cccc(-c3ncc4c(N5CC6CCC(C5)N6)nc(OC[C@]56CCCN5[C@@H](COC(=O)NC)CC6)nc4c3F)c12 (single isomer, unassigned) [Example 432]	1.9 nM	106 nM	–	–
CN1C[C@H](Oc2cccc(S(=O)(=O)F)c2)C[C@H]1COc1nc(N2C[C@H]3CC[C@@H](C2)N3)c2cnc(-c3cccc4cccc(Cl)c34)c(F)c2n1 [Example 208, 3-(((3R,5S)-5-(((4-((1R,5S)-3,8-diazabicyclo[3.2.1]octan-3-yl)-7-(8-chloronaphthalen-1-yl)-8-fluoropyrido[4,3-d]pyrimidin-2-yl)oxy)methyl)-1-methylpyrrolidin-3-yl)oxy)benzenesulfonyl fluoride tris 2,2,2-trifluoroacetate]	1840 nM	–	> 16700 nM	–
CCc1cccc2cccc(-c3ncc4c(N5CC6CCC(C5)N6)nc(OC[C@]56CCCN5[C@@H](COC(=O)N5CCOCC5)CC6)nc4c3F)c12 (single isomer, unassigned) [Example 431]	1.4 nM	74.3 nM	–	–
CN1C[C@H](Oc2ccc(S(=O)(=O)F)cc2)C[C@H]1COc1nc(N2C[C@H]3CC[C@@H](C2)N3)c2cnc(-c3cccc4cccc(Cl)c34)c(F)c2n1 [Example 209, 4-(((3R,5S)-5-(((4-((1R,5S)-3,8-diazabicyclo[3.2.1]octan-3-yl)-7-(8-chloronaphthalen-1-yl)-8-fluoropyrido[4,3-d]pyrimidin-2-yl)oxy)methyl)-1-methylpyrrolidin-3-yl)oxy)benzenesulfonyl fluoride tris(2,2,2-trifluoroacetate)]	2750 nM	–	> 16700 nM	–
CN1CC[C@H](Oc2cccc(S(=O)(=O)F)c2)[C@H]1COc1nc(N2C[C@H]3CC[C@@H](C2)N3)c2cnc(-c3cccc4cccc(Cl)c34)c(F)c2n1 [Example 210, 3-(((2R,3S)-2-(((4-((1R,5S)-3,8-diazabicyclo[3.2.1]octan-3-yl)-7-(8-chloronaphthalen-1-yl)-8-fluoropyrido[4,3-d]pyrimidin-2-yl)oxy)methyl)-1-methylpyrrolidin-3-yl)oxy)benzenesulfonyl fluoride tris(2,2,2-trifluoroacetate)]	5460 nM	–	> 16700 nM	–
C#Cc1c(F)ccc2cc(O)cc(-c3ncc4c(N5C[C@H]6CC[C@@H](C5)N6)nc(OC[C@@]56CCCCN5C[C@H](F)C6)nc4c3F)c12 [Example 469, 4-(4-((1R,5S)-3,8-diazabicyclo[3.2.1]octan-3-yl)-8-fluoro-2-(((2R,8aS)-2-fluorooctahydroindolizin-8a-yl)methoxy)pyrido[4,3-d]pyrimidin-7-yl)-5-ethynyl-6-fluoronaphthalen-2-ol]	< 0.002 nM	31.6 nM	–	–
C#Cc1c(F)ccc2cc(O)cc(-c3ncc4c(N5C[C@H]6CC[C@@H](C5)N6)nc(OC[C@]56CCCN5C[C@@H](F)C6)nc4c3F)c12 [Example 482, 4-(4-((1R,5S)-3,8-diazabicyclo[3.2.1]octan-3-yl)-8-fluoro-2-(((2S,7aR)-2-fluorohexahydro-1H-pyrrolizin-7a-yl)methoxy)pyrido[4,3-d]pyrimidin-7-yl)-5-ethynyl-6-fluoronaphthalen-2-ol]	–	3.4 nM	–	–
CCc1cccc2cc(O)cc(-c3ncc4c(N5C[C@H]6CC[C@@H](C5)N6)nc(OC[C@]56CCCN5C[C@@H](F)C6)nc4c3F)c12 [Example 468, 4-(4-((1R,5S)-3,8-diazabicyclo[3.2.1]octan-3-yl)-8-fluoro-2-(((2S,7aR)-2-fluorohexahydro-1H-pyrrolizin-7a-yl)methoxy)pyrido[4,3-d]pyrimidin-7-yl)-5-ethylnaphthalen-2-ol]	< 0.002 nM	28.8 nM	–	–
Cc1cc2[nH]ncc2c(-c2ncc3c(N4C[C@H]5CC[C@@H](C4)N5)nc(OCC45CCCN4CC(F)C5)nc3c2F)c1Cl (mixture of isomers) [Example 376, 4-((1R,5S)-3,8-diazabicyclo[3.2.1]octan-3-yl)-7-(5-chloro-6-methyl-1H-indazol-4-yl)-8-fluoro-2-((2-fluorotetrahydro-1H-pyrrolizin-7a(5H)-yl)methoxy)pyrido[4,3-d]pyrimidine]	–	582 nM	–	–
Fc1c(-c2cccc3cccc(Cl)c23)ncc2c(N3C[C@H]4CC[C@@H](C3)N4)nc(OCCCN3C[C@@H]4C[C@H]3CO4)nc12 [Example 103, (1S,4S)-5-(3-((4-((1R,5S)-3,8-diazabicyclo[3.2.1]octan-3-yl)-7-(8-chloronaphthalen-1-yl)-8-fluoropyrido[4,3-d]pyrimidin-2-yl)oxy)propyl)-2-oxa-5-azabicyclo[2.2.1]heptane]	–	> 16700 nM	–	–
O=C(O)CCOc1nc(N2C[C@H]3CC[C@@H](C2)N3)c2cnc(-c3cccc4cccc(Cl)c34)c(F)c2n1 [Example 61, 3-((4-((1R,5S)-3,8-diazabicyclo[3.2.1]octan-3-yl)-7-(8-chloronaphthalen-1-yl)-8-fluoropyrido[4,3-d]pyrimidin-2-yl)oxy)propanoic acid compound with 2,2,2-trifluoroacetaldehyde]	4080 nM	–	–	116 nM
Cc1c(-c2cc(O)cc3ccccc23)ncc2c(N3C[C@H]4CC[C@@H](C3)N4)nc(OC[C@@H]3CCCN3C)nc12 [Example 190, 4-(4-((1R,5S)-3,8-diazabicyclo[3.2.1]octan-3-yl)-8-methyl-2-(((S)-1-methylpyrrolidin-2-yl)methoxy)pyrido[4,3-d]pyrimidin-7-yl)naphthalen-2-ol]	64.1 nM	–	–	76.1 nM
CN(C)CCOc1nc(N2C[C@H]3CC[C@@H](C2)N3)c2cnc(-c3cc(O)cc4ccccc34)c(F)c2n1 [Example 18, 4-(4-((1R,5S)-3,8-diazabicyclo[3.2.1]octan-3-yl)-2-(2-(dimethylamino)ethoxy)-8-fluoropyrido[4,3-d]pyrimidin-7-yl)naphthalen-2-ol]	76.8 nM	–	–	3.1 nM
Fc1c(-c2cccc3cccc(Cl)c23)ncc2c(N3C[C@H]4CC[C@@H](C3)N4)nc(OCCc3cccnc3)nc12 [Example 113, 4-((1R,5S)-3,8-diazabicyclo[3.2.1]octan-3-yl)-7-(8-chloronaphthalen-1-yl)-8-fluoro-2-(2-(pyridin-3-yl)ethoxy)pyrido[4,3-d]pyrimidine]	2870 nM	–	–	2500 nM
Fc1c(-c2cccc3ccccc23)ncc2c(N3C[C@H]4CC[C@@H](C3)N4)nc(OC[C@@H]3CCCN3Cc3ccccc3)nc12 [Example 108, 2-(((S)-1-benzylpyrrolidin-2-yl)methoxy)-4-((1R,5S)-3,8-diazabicyclo[3.2.1]octan-3-yl)-8-fluoro-7-(naphthalen-1-yl)pyrido[4,3-d]pyrimidine]	4840 nM	–	–	63500 nM
Oc1cc(-c2ncc3c(N4C[C@H]5CC[C@@H](C4)N5)nc(OCC4(C(F)(F)F)CC4)nc3c2F)c2ccccc2c1 [Example 51, 4-(4-((1R,5S)-3,8-diazabicyclo[3.2.1]octan-3-yl)-8-fluoro-2-((1-(trifluoromethyl)cyclopropyl)methoxy)pyrido[4,3-d]pyrimidin-7-yl)naphthalen-2-ol]	292 nM	–	–	611 nM
COCCCN1CCC(Oc2nc(N3C[C@H]4CC[C@@H](C3)N4)c3cnc(-c4cc(O)cc5ccccc45)c(F)c3n2)CC1 [Example 41, 4-(4-((1R,5S)-3,8-diazabicyclo[3.2.1]octan-3-yl)-8-fluoro-2-((1-(3-methoxypropyl)piperidin-4-yl)oxy)pyrido[4,3-d]pyrimidin-7-yl)naphthalen-2-ol]	76.7 nM	–	–	181 nM
O[C@@H]1C[C@@H]2CN(c3nc(OC[C@@]45CCCN4C[C@H](F)C5)nc4c(F)c(-c5cccc6cccc(Cl)c56)ncc34)C[C@H]1N2 [Example 395, (1R,5R,6R)-3-(7-(8-chloronaphthalen-1-yl)-8-fluoro-2-((2-fluorotetrahydro-1H-pyrrolizin-7a(5H)-yl)methoxy)pyrido[4,3-d]pyrimidin-4-yl)-3,8-diazabicyclo[3.2.1]octan-6-ol]	6.9 nM	–	–	2.6 nM
Cn1ccnc1COc1nc(N2C[C@H]3CC[C@@H](C2)N3)c2cnc(-c3cc(O)cc4ccccc34)c(F)c2n1 [Example 104, 4-(4-((1R,5S)-3,8-diazabicyclo[3.2.1]octan-3-yl)-8-fluoro-2-((1-methyl-1H-imidazol-2-yl)methoxy)pyrido[4,3-d]pyrimidin-7-yl)naphthalen-2-ol]	1680 nM	–	–	362 nM
Fc1c(-c2cccc3cccc(Cl)c23)ncc2c(N3C[C@H]4CC[C@@H](C3)N4)nc(OC3CCc4cn[nH]c4C3)nc12 (stereo partly drawn) [Example 143, 4-((1R,5S)-3,8-diazabicyclo[3.2.1]octan-3-yl)-7-(8-chloronaphthalen-1-yl)-8-fluoro-2-((4,5,6,7-tetrahydro-1H-indazol-6-yl)oxy)pyrido[4,3-d]pyrimidine]	4560 nM	–	–	14900 nM

— patent US20230279025A1, “KRAS G12D INHIBITORS” (Mirati Therapeutics, Inc., priority 2020, published 2023)
